Test results from publication PMC7143545, “Specific NDM-1 Inhibitor of Isoliquiritin Enhances the Activity of Meropenem against NDM-1-positive Enterobacteriaceae in vitro” (International Journal of Environmental Research and Public …, 2020).

Target: T1, New Delhi metallo-β-lactamase-1 (NDM-1) (Escherichia coli, UniProt E5KIY2)
T1 construct: gene blaNDM-1; His-tagged protein (pET28a), ndm-1 from E. coli ZC-YN3
Assay: nitrocefin hydrolysis inhibition assay with purified enzyme
Assay type: biochemical

T1 sequence (E5KIY2 29-270 limits assumed): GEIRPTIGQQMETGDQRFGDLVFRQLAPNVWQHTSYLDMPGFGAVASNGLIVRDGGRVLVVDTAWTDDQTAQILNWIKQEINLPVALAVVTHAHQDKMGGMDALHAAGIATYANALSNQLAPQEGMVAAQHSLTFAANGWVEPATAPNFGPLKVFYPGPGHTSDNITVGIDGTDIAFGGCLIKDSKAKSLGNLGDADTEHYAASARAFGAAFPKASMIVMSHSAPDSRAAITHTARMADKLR

`O=C(/C=C/c1ccc(O[C@@H]2O[C@H](CO)[C@@H](O)[C@H](O)[C@H]2O)cc1)c1ccc(O)cc1O` [isoliquiritin] gave an IC50 of 92.3 µM.
